Laboratory results: patent US20240108637A1, “EPITE[…] AND/OR A STEROID SULFATASE INHIBITOR FOR USE IN TREATING OR IMPROVING AGE RELATED COGNITIVE IMPAIRMENT” (U[…] DE OLAVIDE, priority 2020, published 2024)
“Also recorded” adds a separate entry of the source.

Key:
[1] = test system: aged mice; experiment: Object recognition test in aged mice; format: in vivo
Method: (§1) The first, object recognition, after training with identical objects, tests the ability to identify different objects exposed together with a familiar one. When this happens, the object discrimination index is positive and higher than 0.1. […] For this purpose, during training, the entry latency to the preferred site is established and the aversive stimulus is administered.

[2] = test system: polyglutamine repeats fused to YFP (Q40 background, strain AM141); experiment: Huntington neurodegenerative model: number of polyglutamine aggregates; format: in vivo, C. elegans; conditions: 1 μg/ml, 5-day old worms
[3] = test system: daf-2(e1370); experiment: Developmental arrest (dauer / L1) at 25° C.; format: in vivo, C. elegans; conditions: daf-2(e1370) background
Method: Worms were growth at 16° C. until L4, then shifted to 25° C. considering this Day 0 of adulthood. The pumping was counted under the Leica stereoscope at 100× magnification for 30 seconds. Data display from two independent biological assays (n=30 per day). Two-tailed Mann-Whitney t-test, ***p=0.0006. e Thrashing in sul-2(gk187) is similar to wild type but is slightly lower in sul-2 (pv17) at 25° C. on day 1 of adulthood. On day 6 at 25° of adulthood, the trashing on sul-2(gk187) is lower than wild type and sul-(pv17), with no differences among these last strains. The population of sul-2(gk17) at day 6 seems to distribute into two different populations, one with almost no thrashing and other with values similar to wild type a sul-2(pv17). […] In this condition, all animals from daf-2(e1370); sul-2(pv17) double mutants arrest at L1 stage. Similarly, more than 50% of animals arrest in L1 stage in daf-2(m577); sul-2(pv17) background, while none of the single mutants show this phenotype. i Example of sul-2(pv17) larvae, dauer larval arrest of daf-2(e1370) or L1 arrest of daf-2(e1370); sul-2 (pv17) and daf-2(e1370); sul-2(gk187) at 25° C. Animals were grown up to L4 at 16° C., then shifted at 25° C., progeny were scored or imaged after 72 hours. Photographs were taken in a Leica scope.

[4] = test system: NL5901 strain expressing α-synuclein in muscle cells; experiment: Parkinson's disease model: mobility of NL5901 strain; format: in vivo, C. elegans; conditions: 1 μg/ml
Excerpt: We have studied the anatomical location of sul-2 expression from an extrachromosomal array and in single-copy insertion transgenic strains. […] There is no detectable expression in the germline in any transgenic strains (FIG. 2n and FIG. 10, 11a-b). ASE neurons are responsible for the attractive response of Na+ and Cl−, among others. Defects in odour sensing affect longevity. Therefore, we tested the ability of sul-2 mutants to respond to Cl− or Na+ and found no differences compared to wild type animals (FIG. 11c-d). Furthermore, sul-2 mutation increases the longevity of daf-10(m79), a long-lived mutant defective in sensory cilia formation25 (FIG. 11e). […] Reduction of sul-2 improves aging associated diseases in C. elegans Aging is considered the main risk factor for the onset of neurodegenerative disorders like Parkinson, Huntington, or Alzheimer's diseases. These disorders are caused by the progressive decline of proteostasis, which results in protein aggregation that compromises cellular functions and finally causes cell death. Germline-deficient C. elegans delay the symptoms derived from the proteotoxicity of ectopically expressed human β-amyloid (βA). We tested if sul-2 mutations or STX64 treatment improves the symptoms of C. elegans models for neurodegenerative diseases.

[5] = test system: aged mice; experiment: Cognition of aged mice under STX64 treatment (FIG. 16-19, headline); format: in vivo
[6] = test system: wild type mice injected with β-amyloid oligomers in the hippocampus; experiment: Passive avoidance test after intrahippocampal βA oligomers infusion (acute AD model); format: in vivo
Excerpt: (§2) As STX64 ameliorated neurodegeneration in C. elegans models, we tested the effect of this drug on cognitive alterations provoked by intrahippocampal βA oligomers infusion, an acute AD mammalian model (FIG. 3i). […] To evaluate the effect of STX64 oral treatment on amyloid pathology in a chronic AD mice model, we assessed the effect of 3-4 weeks of STX64 oral treatment on amyloid deposition in the neocortex (the cerebral cortex and the hippocampus) of >15-month-old APP-PS1 mice (FIG. 4k). […] We wondered if this histological improvement correlated with amelioration of cognitive behavioural deficit. For that, we compared cognition capacities in APP-PS1 mice older than 15-month-old treated with vehicle or STX64 for 3-4 weeks.
as §1

[7] = test system: APP-PS1 mice; experiment: Passive avoidance test in APP-PS1 mice; format: in vivo; conditions: APP-PS1 mice older than 15-month-old; 3-4 weeks oral
Excerpt: as §2, §1

[8] = test system: APP-PS1 mice; experiment: β-amyloid deposition in frontal cortex and hippocampus (chronic AD model); format: in vivo; conditions: 3-4 weeks oral
Excerpt: as §2

[9] = test system: C. elegans; experiment: Lifespan assays in C. elegans; format: in vivo, Caenorhabditis elegans
Method: F2 L4 animals were shifted to 25° C. (t=0). ES treatment started at L4 stage, control and treated plates were prepared fresh and animals transferred each three days until death. Animals lost or dead by non-physiological causes were censured. Survival curves were generated using the product-limit method of Kaplan and Meier. The log-rank (Mantel-Cox) test was used to evaluate differences in survival and […] lower than 0.05 were considered significant.

[10] = test system: 16-month-old mice; experiment: Open Field test; format: in vivo; conditions: FIG. 20; for habituation ability: aged animals, Open Field 15 minutes
Method: The “Open Field” is a test where the mouse must explore an unknown space for 15 minutes. In this test, both mobility and habituation (cognitive parameter that measures the individual's ability to recognize the environment) can be studied. On the other hand, the “Y maze” test is a test where the mouse explores the maze for 6 minutes. This test evaluates the distance traveled as a measure of mobility and the ability to visit triplets of arms without repeating any of them as a sign of immediate memory.

[11] = test system: aged mice; experiment: Passive avoidance test in aged mice (STM and LTM); format: in vivo
Method: as §1
During short- and long-term memory tests (STM and LTM) if the mouse associated the preferred place to the aversive stimulus, the input latency increases with respect to training.

[12] = aged mice, vs vehicle-treated, FIG. 21, listed as STX

NS(=O)(=O)Oc1ccc2c3c(c(=O)oc2c1)CCCCC3 [STX64]
object recognition ([1]; 3-month treatment in 18 months old mice, FIG. 19B): is improved | object recognition ([1]; 3 months treatment in 15 months old mice, FIG. 16B): is improved | object recognition ([1]; 6 months treatment in 15 months old mice, FIG. 17B): is improved | learning and memory, object recognition test [1, 12]: showed significantly both learning (STM) and ability to store information (memory); also recorded: significant improvement in both learning (STM) and ability to store information (memory) | number of polyglutamine aggregates [2]: aggregates are reduced; also recorded: reduced the number of aggregates | L1 arrest [3]: phenocopies other sul-2 mutant phenotypes; also recorded: mainly arrests in L1 | L1 arrest ([3]; listed as STX 64): increase of L1 arrest | mobility with age [4]: reduce mobility with age at a slower rate; also recorded: significantly improved mobility; also recorded: protective effect | cognition ([5]; 1-month treatment in 18 months old mice, 19 months when assayed, FIG. 18): improves cognition | cognition ([5]; 3-month treatment in 18 months old mice, 21 months when assayed, FIG. 19): improves cognition | cognition ([5]; 3 months treatment in 15 months old mice, FIG. 16): improves cognition | cognition ([5]; 6 months treatment in 15 months old mice, 21 months when assayed, FIG. 17): improves cognition | cognitive deficiencies, passive avoidance test ([6]; local (intrahippocampal) administration): reverted the cognitive deficiencies | cognitive deficiencies, passive avoidance test ([6]; systemic (oral) administration): reverted the cognitive deficiencies | cognitive deficiencies, passive avoidance test [7]: completely reverted cognitive deficiencies | βA deposition compared with un-treated APP-PS1 mice of 10-12 months of age ([8]; APP-PS1 mice older than 15 months): reduces βA deposition | βA immunoreactive area ([8]; frontal cortex and hippocampus, >15-month-old APP-PS1 mice): reduced in both tissues | βA plaque density ([8]; frontal cortex and hippocampus, >15-month-old APP-PS1 mice, 0.005 mg/ml in drink water): significant reduction | βA plaque size ([8]; frontal cortex, >15-month-old APP-PS1 mice, 0.005 mg/ml in drink water): significant reduction | dependence of the increase of longevity on daf-36 ([9]; daf-36 mutant, 1 μg/ml, FIG. 2m): daf-36 is necessary for the increase of longevity; also recorded: DAF-36 is required for the longevity | lifespan ([9]; sul-2 (gk187) deletion background, 1 μg/ml, UV-killed E. coli, FIG. 1D): does not further increase the longevity | lifespan ([9]; wild type animals, 1 μg/ml, UV-killed E. coli, FIG. 1D): increases lifespan | longevity ([9]; wild type animals, text statement (FIG. 1d, FIG. 7a-c)): increase in longevity; also recorded: extends lifespan | lifespan ([9]; wild type, non-UV E. coli, FIG. 7a): increases lifespan of wild type | motor ability (mobility) ([10]; 16-month-old mice, Open Field mobility and Y maze distance traveled): tend to improve | habituation ability [10]: tend to improve | habituation ability ([10]; listed as STX): are improved | short term and long-term memory in passive avoidance test ([11]; 1-month treatment in 18 months old mice, FIG. 18B): significant improvement | learning (STM) and memory (LTM), passive avoidance test [11, 12]: showed significantly both learning (STM) and ability to store information (memory); also recorded: significant improvement in both learning (STM) and ability to store information (memory)
